Data as given in ChEMBL document CHEMBL1201862, “PubChem BioAssay data set” (2004).
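How tested: cells in 96-well plates exposed to compound for 48 hours at five concentrations. Here, GI50 denotes the concentration required for 50% inhibition of growth.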 The source made the active and inactive calls. Cut-off read from the data, not from the text of the source: active = GI50 up to about 1.1 µM and inactive = higher.

Tests used:
Test in all cases: DTP human tumour cell line panel, 48 h
CCRF-CEM = tested on: CCRF-CEM
COLO 205 = tested on: COLO 205
EKVX = tested on: EKVX
HCT-116 = tested on: HCT-116
HT-29 = tested on: HT-29
IGROV-1 = tested on: IGROV-1
K562 = tested on: K562
LOX IMVI = tested on: LOX IMVI
MOLT-4 = tested on: MOLT-4
Malme-3M = tested on: Malme-3M
OVCAR-3 = tested on: OVCAR-3
OVCAR-4 = tested on: OVCAR-4
RPMI-8226 = tested on: RPMI-8226
SF-268 = tested on: SF-268
SF-295 = tested on: SF-295
SK-OV-3 = tested on: SK-OV-3
SNB-75 = tested on: SNB-75
UACC-257 = tested on: UACC-257

SMILES | GI50 (CCRF-CEM) | GI50 (COLO 205) | GI50 (EKVX) | GI50 (HCT-116) | GI50 (HT-29) | GI50 (IGROV-1) | GI50 (K562) | GI50 (LOX IMVI) | GI50 (MOLT-4) | GI50 (Malme-3M) | GI50 (OVCAR-3) | GI50 (OVCAR-4) | GI50 (RPMI-8226) | GI50 (SF-268) | GI50 (SF-295) | GI50 (SK-OV-3) | GI50 (SNB-75) | GI50 (UACC-257)
CC(=O)OCC1=C(CCC#N)N2C(=O)C(NC(=O)Cc3cccs3)C2[S+]([O-])C1 (stereo not given) | > 100 µM (inactive) | > 100 µM (inactive) | > 100 µM (inactive) | > 100 µM (inactive) | > 100 µM (inactive) | > 100 µM (inactive) | > 100 µM (inactive) | > 100 µM (inactive) | > 100 µM (inactive) | > 100 µM (inactive) | > 100 µM (inactive) | > 100 µM (inactive) | > 100 µM (inactive) | > 100 µM (inactive) | > 100 µM (inactive) | > 100 µM (inactive) | > 100 µM (inactive) | > 100 µM (inactive)
CC(=O)OCCOCNC(=S)N/N=C/c1ccc2ccccc2n1 | 54 µM (inactive) | 26.5 µM (inactive) | 32.7 µM (inactive) | 42.2 µM (inactive) | 40.6 µM (inactive) | 44.6 µM (inactive) | 53.2 µM (inactive) | 43 µM (inactive) | > 100 µM (inactive) | 55.5 µM (inactive) | 35.3 µM (inactive) | 63 µM (inactive) | > 100 µM (inactive) | 34.9 µM (inactive) | 44.6 µM (inactive) | 43.1 µM (inactive) | 51.3 µM (inactive) | 48.9 µM (inactive)
COc1ccc(OC)c(NCC#N)c1 | > 100 µM (inactive) | > 100 µM (inactive) | > 100 µM (inactive) | > 100 µM (inactive) | > 100 µM (inactive) | > 100 µM (inactive) | > 100 µM (inactive) | > 100 µM (inactive) | > 100 µM (inactive) | > 100 µM (inactive) | > 100 µM (inactive) | > 100 µM (inactive) | > 100 µM (inactive) | > 100 µM (inactive) | > 100 µM (inactive) | > 100 µM (inactive) | > 100 µM (inactive) | > 100 µM (inactive)
CSc1ccc(OCC2OC2O)cc1 (stereo not given) | 21.7 µM (inactive) | 16.5 µM (inactive) | > 93.1 µM (inactive) | 17.3 µM (inactive) | 32.3 µM (inactive) | > 100 µM (inactive) | 52.8 µM (inactive) | 16.9 µM (inactive) | 19.4 µM (inactive) | 98.2 µM (inactive) | 30.6 µM (inactive) | 30.8 µM (inactive) | 30.8 µM (inactive) | – | 41.1 µM (inactive) | > 100 µM (inactive) | > 65.6 µM (inactive) | 41.2 µM (inactive)
COC(=O)/C([Se]c1c(C)cc(C)cc1C)=C(/[Se]c1c(C)cc(C)cc1C)C(=O)OC | > 100 µM (inactive) | > 100 µM (inactive) | > 100 µM (inactive) | > 100 µM (inactive) | 91.2 µM (inactive) | > 100 µM (inactive) | > 100 µM (inactive) | > 100 µM (inactive) | 47.3 µM (inactive) | > 100 µM (inactive) | > 100 µM (inactive) | > 100 µM (inactive) | 76 µM (inactive) | > 100 µM (inactive) | > 100 µM (inactive) | > 100 µM (inactive) | > 100 µM (inactive) | > 100 µM (inactive)
O=C1/C(=C/c2ccccc2)CN(C(=O)Oc2ccc(Cl)cc2)C/C1=C\c1ccccc1 | 1.55 µM (inactive) | 3.1 µM (inactive) | 10 µM (inactive) | 0.239 µM (active) | 1.14 µM (inactive) | 3.05 µM (inactive) | 1.76 µM (inactive) | 0.635 µM (active) | 2.65 µM (inactive) | 11.3 µM (inactive) | 3.42 µM (inactive) | 0.887 µM (active) | 0.0957 µM (active) | 2.99 µM (inactive) | 2.23 µM (inactive) | 7.13 µM (inactive) | 4.24 µM (inactive) | 1.7 µM (inactive)
CCN1CCC(O)(/C=C/c2ccc(Cl)cc2)C(C(=O)/C=C/c2ccc(Cl)cc2)C1 (stereo not given) | 22.7 µM (inactive) | 71.4 µM (inactive) | 43.9 µM (inactive) | 3.63 µM (inactive) | 18.6 µM (inactive) | 27.1 µM (inactive) | 28.1 µM (inactive) | 16.2 µM (inactive) | 23.9 µM (inactive) | > 100 µM (inactive) | 18.9 µM (inactive) | 29.6 µM (inactive) | 2.88 µM (inactive) | 30.4 µM (inactive) | 20.6 µM (inactive) | 23 µM (inactive) | 33.9 µM (inactive) | 17.5 µM (inactive)
